Source: US20070128217A1 (priority 2003, published 2007)

Key:
[1] = tested on: rabbit serum obtained by immunizing a rabbit with the SARS-CoV strain Frankfurt 1; type: binding; set-up: Binding of a rabbit serum to linear peptides / Binding of a rabbit serum to looped peptides / Rabbit serum linear peptides / Rabbit serum looped peptides / Binding of a rabbit serum to linear peptides of protein N of SARS-CoV Urbani (Rabbit serum linear peptides) / Binding of a rabbit serum to looped/cyclic peptides of protein N of SARS-CoV Urbani (Rabbit serum looped peptides): unit not given here
[2] = tested on: control sera (pooled serum of ten healthy LUMC hospital workers; commercial negative donor pooled serum from the Dutch bloodbank); type: binding, human; set-up: Binding of Control serum LUMC to linear peptides / Binding of Control serum Blood-bank to linear peptides / Binding of Control serum LUMC to looped peptides / Binding of Control Serum Blood-Bank to Looped peptides / Binding of Control serum LUMC to linear peptides of the protein M of SARS-CoV Urbani / Binding of Control serum Blood-bank to linear peptides of the protein M of SARS-CoV Urbani / Binding of Control serum LUMC to looped peptides of the protein M of SARS-CoV Urbani / Binding of Control Serum Blood-Bank to Looped peptides of the protein M of SARS-CoV Urbani: unit not given here

Sequence	Recognition of the peptide by the rabbit serum [1]	Binding of Control Serum Blood-Bank to Looped peptides of the protein M of SARS-CoV Urbani [2]	Binding of Control serum Blood-bank to linear peptides of the protein M of SARS-CoV Urbani [2]	Binding of Control serum LUMC to linear peptides of the protein M of SARS-CoV Urbani [2]	Binding of Control serum LUMC to looped peptides of the protein M of SARS-CoV Urbani [2]	Binding of a rabbit serum to linear peptides [1]	Binding of a rabbit serum to looped peptides [1]	Binding of Control Serum Blood-Bank to Looped peptides [2]	Binding of Control serum Blood-bank to linear peptides [2]	Binding of Control serum LUMC to linear peptides [2]	Binding of Control serum LUMC to looped peptides [2]	Rabbit serum linear peptides [1]	Rabbit serum looped peptides [1]
ADNGTITVEELKQLL	recognized	0.5	0.7	0.5	0.7								
AMDPIYDEPTTTTSV						0.1	0.4	0.7	0.8	0.6	0.7		
ANPAMDPIYDEPTTT						0.1	0.4	0.4	0.4	0.3	0.4		
ASQRVGTDSGFAAYN		0.7	0.8	0.5	0.8							0.4	0.1
AYCCNIVNVSLVKPT						0.3	0.2	0.9	0.9	0.9	0.8		
CVRGTTVLLKEPCPS								0.9	0.8	0.7	0.9	0.5	0.5
DANYFVCWHTHNYDY						0.1	0.5	0.5	0.8	0.8	1.0		
